Measured values as given in article PMC6633864, “Intestinal Absorption Profile of Three Polygala Oligosaccharide Esters in Polygalae Radix and the Effects of Other Components in Polygalae Radix on Their Absorption” (Evidence-based Complementary and Alternative Medicine : eCAM, 2019).

Assays:
[1] = set-up: method as in PMID 24043590; settings: cited from earlier work
[2] = Drug stability in blank intestinal circulation fluid; type: in vitro ADME, rat; settings: 37°C, 3 h
Method: The K–R culture solution was circulated in rat intestines for 3 h. PRE, SA5, SA6, and DISS were dissolved in the blank intestinal circulation fluid at concentrations of 12 mg/ml, 0.050 mg/ml, 0.086 mg/ml, and 0.198 mg/ml, respectively, and incubated at 37°C for 3 h. Aliquots of 1 ml samples were taken out at 0, 0.5, 1, 2, and 3 h after preparation for analysis.

[3] = Intestinal absorption in vitro by the everted rat gut sac model; type: in vitro ADME; settings: n = 5
[4] = in PRE, high concentration (SA5 0.075, SA6 0.130, DISS 0.296 mg/ml), 180 min
[5] = in PRE, low concentration (SA5 0.025, SA6 0.043, DISS 0.099 mg/ml), 180 min
[6] = monomer, high concentration (SA5 0.075, SA6 0.130, DISS 0.296 mg/ml)
[7] = monomer, low concentration (SA5 0.025, SA6 0.043, DISS 0.099 mg/ml)

stability in the blank intestinal circulation solution (in words) [2]: stable at 37 °C for 3 h
K a [3, 4]: 0.109 ± 0.010 ^∗∗,## μg·cm^−2·min^−1
P (%) percentage of absorption [3, 4]: 2.54 ± 0.19%
P app [3, 4]: 0.61 ± 0.057 ×10^−5cm/s
K a [3, 5]: 0.036 ± 0.0019 μg·cm^−2·min^−1
P (%) percentage of absorption [3, 5]: 2.55 ± 0.03%
P app [3, 5]: 0.61 ± 0.0033 ×10^−5cm/s
K a [3, 6]: 0.049 ± 0.022 ^∗∗##, μg·cm^−2·min^−1
P (%) percentage of absorption [3, 6]: 1.18 ± 0.04%
P app [3, 6]: 0.28 ± 0.079 ×10^−5cm/min
K a [3, 7]: 0.015 ± 0.0005 μg·cm^−2·min^−1
P (%) percentage of absorption [3, 7]: 1.13 ± 0.05%
P app [3, 7]: 0.26 ± 0.068 ×10^−5cm/min
SMILES: COc1cc(/C=C/C(=O)OC[C@H]2O[C@H](O[C@]3(CO)O[C@H](CO)[C@@H](O)[C@@H]3OC(=O)/C=C/c3cc(OC)c(O)c(OC)c3)[C@H](O)[C@@H](O)[C@@H]2O)cc(OC)c1O [DISS, 3,6′-disinapoyl sucrose]
effect of ATP energy inhibitor sodium azide on absorption [1]: no effect
effect of P-gp inhibitor cyclosporine A on absorption [1]: no significant effect
effect of paracellular enhancers EDTA and sodium caprate (SC) on Papp [1]: could increase Papp
